According to US6656911B2, “Serine protease inhibitors” (Cortech, Inc., priority 1994, dated 2003):
pKi: −log10 of the molar value.

Experiments:
[1] = molecular target: T1, human neutrophil elastase (HNE) (Homo sapiens, UniProt P08246); assay: HNE Ki of CE compounds, tested as described in WO 96/16080; assay type: biochemical; details: read-out: HNE Ki
T1 sequence (P08246 30-267): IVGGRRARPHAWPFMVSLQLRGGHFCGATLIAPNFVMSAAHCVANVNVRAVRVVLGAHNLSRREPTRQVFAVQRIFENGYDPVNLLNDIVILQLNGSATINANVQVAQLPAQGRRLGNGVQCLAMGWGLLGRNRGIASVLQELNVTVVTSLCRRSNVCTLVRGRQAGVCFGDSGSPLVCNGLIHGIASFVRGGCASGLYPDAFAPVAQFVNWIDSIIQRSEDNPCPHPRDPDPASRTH

[2] = Blood level screening after oral dose; assay type: in vivo, Sprague-Dawley rats; details: rat, oral gavage 10 mg/kg; for concentration at 3 h / concentration at 1 h: male, Sprague-Dawley, plasma; for concentration at 3 h: read-out: Plasma Levels (μM) 3 hr; for concentration at 1 h: read-out: Plasma Levels (μM) 1 hr
Method: The inhibitors were dissolved or suspended in polyethylene glycol (PEG), PEG-400 or PEG:H2O:EtOH at a concentration of 10 mg/ml. Unfasted male Sprague-Dawley rats were given an oral dose of this solution by gavage. Rats received 10 mg inhibitor/kg body weight in a volume of 1 ml/kg. After 1,3 or 6 hr., the rats were killed with an overdose of urethane (2.5 g/kg; i.p.) and the blood collected in a heparinized tube via cardiac puncture. Red blood cells were separated from the plasma by centrifugation.
Depending on the inhibitor, one of four organics (ethyl acetate, toluene, isopropyl ether or methyl t-butyl ether) was used to extract the compound from the plasma. Inhibitor concentrations were measured by HPLC or LC/MS analysis.

Compound	pKi [1]	concentration at 3 h [2] [µM]	Plasma Levels (μM) 3 hr [2] [µM]	Plasma Levels (μM) 1 hr [2] [µM]	Plasma Levels (μM) 6 hr [2] [µM]	concentration at 1 h [2] [µM]
CC(=O)N1CC(=O)N(CC(=O)N[C@H](C(=O)c2nnc(Cc3cccc(C)c3)o2)C(C)C)C(=Cc2ccc(N(C)C)cc2)C1=O [CE2111, 1-Acetyl-3-(4-dimethylaminobenzylidene) piperazine-2,5-dione-N-[1-(2-[5-(3-methylbenzyl)-1,3,4-oxadiazolyl]carbonyl)-2-(S)-methylpropyl]acetamide]	7.70	0.69				
CC(C)[C@H](NC(=O)[C@@H]1Cc2ccccc2N1C(=O)[C@@H](NC(=O)OCc1ccccc1)C(C)C)C(=O)c1noc(Cc2cccc(C(F)(F)F)c2)n1 [CE2125, (Benzyloxycarbonyl)-L-valyl-2-L-(2,3-dihydro-1H-indole)-N-[1-(3-[5-(3-trifluoromethylbenzyl)-1,2,4-oxadiazolyl]carbonyl)-2-(S)-methylpropyl]amide]	9.40	0.011				
BTD-[1-(2-[5-(3-methylbenzyl)-1,3,4-oxadiazolyl]carbonyl)-2-(S)-methylpropyl]amide [CE2126]	8.30		0.161			
CC(=O)N1c2ccccc2C[C@H]1C(=O)N[C@H](C(=O)c1nnc(Cc2cccc(C)c2)o1)C(C)C [CE2165, N-Acetyl-2-(L)-(2,3-dihydro-1H-indole)-N-[1-(2-[5-(3-methylbenzyl) 1,3,4-oxadiazolyl]carbonyl)-2-(S)-methylpropyl]amide]	8.59	0.067				
CC(C)[C@H](NC(=O)[C@@H]1CCCN1C(=O)[C@@H](NS(C)(=O)=O)C(C)C)C(=O)c1noc(Cc2cccc(C(F)(F)F)c2)n1 [CE2172, Methylsulfonyl-L-valyl-N-[1-(3-[5-(3-trifluoromethylbenzyl)-1,2,4-oxadiazolyl]carbonyl)-2-(S)-methylpropyl]-L-prolinamide]	8.66	0.021				
Cc1cccc(Cc2nc(C(=O)[C@@H](NC(=O)[C@@H]3CCCN3C(=O)[C@@H](NC(=O)OCc3ccccc3)C(C)C)C(C)C)no2)c1 [CE2055, (Benzyloxycarbonyl)-L-valyl-N-[1-(3-[5-(3-methylbenzyl)-1,2,4-oxadiazolyl]carbonyl)-2-(S)-methylpropyl]-L-prolinamide]		0.002				
Cc1cccc(Cc2nnc(C(=O)[C@@H](NC(=O)CN3C(=O)NC4(CCCC4)C3=O)C(C)C)o2)c1 [CE2231, 4-Spirocyclopentane-2,5-imidazolidinedione-N-[1-(2-[5-(3-methylbenzyl)-1,3,4-oxadiazolyl]carbonyl)-2-(S)-methylpropyl]acetamide]	7.80		0.787	1.226	0.531	
CC(C)[C@H](NC(=O)CN1C(=O)NC(=Cc2cccnc2)C1=O)C(=O)c1noc(Cc2cccc(C(F)(F)F)c2)n1 [CE2203, [4-(R)-(3-pyridylmethylene)]-2,5-imidazolidinedione-N-[1-(3-[5-(3-trifluoromethylbenzyl)-1,2,4-oxadiazolyl]carbonyl)-2-(S)-methylpropyl]acetamide]	7.10		0.004			
COC(=O)N[C@H](C(=O)N1CCC[C@H]1C(=O)N[C@H](C(=O)c1noc(Cc2cccc(C(F)(F)F)c2)n1)C(C)C)C(C)C [CE2214, Methyloxycarbonyl-L-valyl-N-[1-(3-[5-(3 trifluoromethylbenzyl)-1,2,4-oxadiazolyl]carbonyl)-2-(S)-methylpropyl]-L-prolinamide]	9.04	0				
Cc1cccc(Cc2nnc(C(=O)C(NC(=O)CN3C(=O)CCc4ccccc43)C(C)C)o2)c1 (stereo not shown) [CE2088, 3,4-Dihydro-quinoline-2-one-N-[1-(2-[5-(3-methylbenzyl)-1,3,4-oxadiazolyl]carbonyl)-2-N-methylpropyl]acetamide]	7.18	0.755				0.801
CCc1cccc(Cc2nnc(C(=O)[C@@H](NC(=O)CN3C(=O)NC(=Cc4cccnc4)C3=O)C(C)C)o2)c1 [CE2205, [4-(R)-(3-pyridylmethylene)]-2,5-imidazolidinedione-N-[1-(2-[5-(3-ethylbenzyl)-1,3,4-oxadiazolyl]carbonyl)-2-(S)-methylpropyl]acetamide]	7.43		0.475			
Cc1cccc(Cc2nnc(C(=O)[C@@H](NC(=O)CN3C(=O)CN(CCN4CCOCC4)C(=O)[C@H]3Cc3ccccc3)C(C)C)o2)c1 [CE2162, 4-[1-(2-N-Morpholino)ethyl-3-(R)-benzylpiperazine-2,5-dione]-N-[1-(2-[5-(3-methylbenzyl)-1,3,4-oxadiazolyl]carbonyl)-2-(S)-methylpropyl]acetamide]	7.97	0.025				
Cc1cccc(Cc2nnc(C(=O)[C@@H](NC(=O)Cn3c(=O)c(N)cc4ccccc43)C(C)C)o2)c1 [CE2113, 3-(Amino-quinoline-2-one)-N[1-(2-[5-(3-methylbenzyl)-1,3,4-oxadiazolyl]carbonyl)-2-(S)-methylpropyl]acetamide]	7.41	0.909				1.83
CC(C)[C@H](NC(=O)CN1C(=O)NC(c2ccncc2)(N2C(=O)CCC2=O)C1=O)C(=O)c1noc(Cc2cccc(C(F)(F)F)c2)n1 (stereo partly drawn) [CE2209, [4-(R,S)-(4-pyridyl)-4-(R,S)-N-succinimidyl]-2,5-imidazolidinedione-N-[1-(3-[5-(3-trifluoromethylbenzyl)-1,2,4-oxadiazolyl]carbonyl)-2-(S)-methylpropyl]acetamide]	7.44		0			
Cc1cccc(Cc2nnc(C(=O)[C@@H](NC(=O)CN(Cc3ccccc3)C(=O)c3ccc[nH]3)C(C)C)o2)c1 [CE2164, (Pyrrole-2-carbonyl)-N-(benzyl)glycyl-N-[1-(2-[5-(3-methylbenzyl)-1,3,4-oxadiazolyl]carbonyl)-2-(S)-methylpropyl]amide]	7.77	0.034				
Cc1cccc(Cc2nnc(C(=O)C(NC(=O)Cn3c(=O)c(N)cc4ccccc43)C(C)C)o2)c1 (racemic) [CE2228, 3-(R,S)-Amino-quinolin-2-one-N-[1-(2-[5-(3-methylbenzyl)-1,3,4-oxadiazolyl]carbonyl)-2-(R,S)-methylpropyl]acetamide]	7.40		1.393	0.714	0.409	
Cc1cccc(Cc2nnc(C(=O)[C@@H](NC(=O)Cn3c(=O)ncc4ccccc43)C(C)C)o2)c1 [CE2215, 1,4-Quinazolin-2-one-N-[1-(2-[5-(3-methylbenzyl)-1,3,4-oxadiazolyl]carbonyl)-2-(S)-methylpropyl]acetamide]	6.79		0.83	1.16	0.63	
Cc1cccc(Cc2nnc(C(=O)[C@@H](NC(=O)CN3C(=O)N[C@@H](CC(C)C)C3=O)C(C)C)o2)c1 [CE2227, 4-(S)-(2-Isobutyl)-2,5-imidazolidinedione-N-[1-(2-[5-(3-methylbenzyl)-1,3,4-oxadiazolyl]carbonyl)-2-(S)-methylpropyl]acetamide]	7.40		0.74	1.276	0.962	
CC(=O)N1CC(=O)N(CC(=O)N[C@H](C(=O)c2nnc(Cc3cccc(C)c3)o2)C(C)C)C(=Cc2ccccc2)C1=O [CE2099, 1-Acetyl-3-benzylidene piperazine-2,5-dione-N-[1-(2-[5-(3-methylbenzyl)-1,3,4-oxadiazolyl]carbonyl)-2-(S)-methylpropyl]acetamide]	8.72	0.042				
CC(C)[C@H](NC(=O)CN1C(=O)N[C@H](Cc2ccccc2)C1=O)C(=O)c1noc(Cc2cccc(C(F)(F)F)c2)n1 [CE2141, 5-(R)-Benzyl-2,4-imidazolidinedione-N-[1-(3-[5-(3-trifluoromethylbenzyl)-1,2,4-oxadiazolyl]carbonyl)-2-(S)-methylpropyl]acetamide]	7.19		0.005			
CC(C)OC(=O)N[C@H](C(=O)N1CCC[C@H]1C(=O)N[C@H](C(=O)c1noc(Cc2cccc(C(F)(F)F)c2)n1)C(C)C)C(C)C [CE2207, Isopropytoxycarbonyl-L-valyl-N-[1-(3-[5-(3-trifluoromethylbenzyl)-1,2,4-oxadiazolyl]carbonyl)-2-(S)-methylpropyl]-L-prolinamide]	8.92	0				
Cc1cccc(Cc2nnc(C(=O)[C@@H](NC(=O)CN3C[C@@H](c4ccccc4)N(C(=O)OCc4ccccc4)CC3=O)C(C)C)o2)c1 [CE2204, 1-Benzyloxycarbonyl-(2-(R)-phenylpiperazin-5-one)-N-[-(2-[5-(3-methylbenzyl)-1,3,4-oxadiazolyl]carbonyl)-2-(S)-methylpropyl]acetamide]	8.13	0.48				
COC(=O)N[C@H](C(=O)N1CCC[C@H]1C(=O)N[C@H](C(=O)c1nnc(Cc2cccc(C)c2)o1)C(C)C)C(C)C [CE2213, Methyloxycarbonyl-L-valyl-N-[1-(2-[5-(3-methylbenzyl)-1,3,4-oxadiazolyl]carbonyl)-2-(S)-methylpropyl]-L-prolinamide]	9.85	0.19				
